Test results reported in ChEMBL document CHEMBL1154018, “Esters of betulin and betulinic acid with amino acids have improved water solubility and are selectively cytotoxic toward cancer cells” (Bioorg Med Chem Lett, 2009).

Columns and labels:
[1] = Cytotoxicity against daunorubicin-resistant human EPP85-181RDB cells after 24 hrs by SRB method; type: functional, cell-based
[2] = Cytotoxicity against human EPP85-181P cells after 24 hrs by SRB method; type: functional, cell-based
[3] = Induction of apoptosis in human EPP85-181P cells assessed as cell accumulation at apoptotic phase after 24 hrs by comet assay; type: functional
[4] = Induction of apoptosis in human EPG85-257P cells assessed as normal cells after 24 hrs by comet assay; type: functional
[5] = Induction of apoptosis in human EPG85-257P cells assessed as cell accumulation at apoptotic phase after 24 hrs by comet assay; type: functional
[6] = Cytotoxicity against daunorubicin-resistant human EPG85-257RDB cells after 24 hrs by SRB method; type: functional, cell-based
[7] = Induction of apoptosis in human EPP85-181P cells assessed as normal cells after 24 hrs by comet assay; type: functional
[8] = Aqueous solubility in DMSO solution at 1 mg; type: physicochemical
[9] = Cytotoxicity against human EPG85-257P cells after 24 hrs by SRB method; type: functional, cell-based
[10] = Chemical stability in 0.02M phosphatre buffer of pH 7.4 after 6 days by RP-HPLC; type: physicochemical; conditions: pH 7.4, 144 h

| SMILES | IC50 [1] [µM] | IC50 [2] [µM] | Activity [3] [%] | Activity [4] [%] | Activity [5] [%] | IC50 [6] [µM] | Activity [7] [%] | solubility [8] | IC50 [9] [µM] | Stability [10] |
| --- | --- | --- | --- | --- | --- | --- | --- | --- | --- | --- |
| C=C(C)[C@@H]1CC[C@]2(C(=O)O)CC[C@]3(C)[C@H](CC[C@@H]4[C@@]5(C)CC[C@H](OC(=O)[C@@H](N)CC)C(C)(C)[C@@H]5CC[C@]43C)[C@@H]12 | > 50 | 26 | 69.6 | 98.3 | 1.7 | > 50 | 30.4 | Soluble | 33 |  |
| C=C(C)[C@@H]1CC[C@]2(COC(=O)[C@H](C)N)CC[C@]3(C)[C@H](CC[C@@H]4[C@@]5(C)CC[C@H](O)C(C)(C)[C@@H]5CC[C@]43C)[C@@H]12 | > 50 | > 50 | 5.2 | 58 | 42 | > 50 | 94 | Soluble | 38 |  |
| C=C(C)[C@@H]1CC[C@]2(C(=O)O)CC[C@]3(C)[C@H](CC[C@@H]4[C@@]5(C)CC[C@H](OC(=O)[C@H](C)N)C(C)(C)[C@@H]5CC[C@]43C)[C@@H]12 | > 50 | > 50 | 25.9 | 98.6 | 1.4 | > 50 | 74.1 | Soluble | 48 |  |
| C=C(C)[C@@H]1CC[C@]2(COC(=O)[C@@H](N)CCSC)CC[C@]3(C)[C@H](CC[C@@H]4[C@@]5(C)CC[C@H](OC(=O)[C@@H](N)CCSC)C(C)(C)[C@@H]5CC[C@]43C)[C@@H]12 | > 50 | 22 | 24.7 | 84.9 | 15.1 | > 50 | 75.3 | Soluble | 31 |  |
| C=C(C)[C@@H]1CC[C@]2(C(=O)O)CC[C@]3(C)[C@H](CC[C@@H]4[C@@]5(C)CC[C@H](OC(=O)[C@@H](N)Cc6ccccc6)C(C)(C)[C@@H]5CC[C@]43C)[C@@H]12 | > 50 | > 50 | 3.1 | 97.5 | 2.5 | > 50 | 96.9 | Soluble | > 50 |  |
| C=C(C)[C@@H]1CC[C@]2(C(=O)O)CC[C@]3(C)[C@H](CC[C@@H]4[C@@]5(C)CC[C@H](OC(=O)[C@@H](N)CCCN)C(C)(C)[C@@H]5CC[C@]43C)[C@@H]12 | > 50 | 14 | 99 |  |  | > 50 | 1 | Soluble | 9.7 |  |
| C=C(C)[C@@H]1CC[C@]2(COC(=O)[C@@H](N)Cc3ccccc3)CC[C@]3(C)[C@H](CC[C@@H]4[C@@]5(C)CC[C@H](OC(=O)[C@@H](N)Cc6ccccc6)C(C)(C)[C@@H]5CC[C@]43C)[C@@H]12 | > 50 | > 50 | 1 | 91 | 9 | > 50 | 99 | Soluble | > 50 |  |
| C=C(C)[C@@H]1CC[C@]2(COC(=O)CN)CC[C@]3(C)[C@H](CC[C@@H]4[C@@]5(C)CC[C@H](OC(=O)CN)C(C)(C)[C@@H]5CC[C@]43C)[C@@H]12 | > 50 | > 50 | 0.5 |  |  | > 50 | 99.5 | Soluble | > 50 |  |
| C=C(C)[C@@H]1CC[C@]2(COC(=O)[C@H](C)N)CC[C@]3(C)[C@H](CC[C@@H]4[C@@]5(C)CC[C@H](OC(=O)[C@H](C)N)C(C)(C)[C@@H]5CC[C@]43C)[C@@H]12 | 21 | 4.6 | 100 | 0 | 100 | > 50 | 0 | Soluble | 17 |  |
| C=C(C)[C@@H]1CC[C@]2(COC(=O)[C@@H](N)CCCCN)CC[C@]3(C)[C@H](CC[C@@H]4[C@@]5(C)CC[C@H](OC(=O)[C@@H](N)CCCCN)C(C)(C)[C@@H]5CC[C@]43C)[C@@H]12 | 18 | 3.8 | 99.5 | 0 | 100 | > 50 | 0.5 | Soluble | 4.1 | Stable |
| C=C(C)[C@@H]1CC[C@]2(COC(=O)CN)CC[C@]3(C)[C@H](CC[C@@H]4[C@@]5(C)CC[C@H](O)C(C)(C)[C@@H]5CC[C@]43C)[C@@H]12 | > 50 | > 50 | 1.4 | 90.2 | 9.8 | > 50 | 98.6 | Soluble | > 50 |  |
| C=C(C)[C@@H]1CC[C@]2(C(=O)O)CC[C@]3(C)[C@H](CC[C@@H]4[C@@]5(C)CC[C@H](O)C(C)(C)[C@@H]5CC[C@]43C)[C@@H]12 [BETULINIC ACID] | > 50 | 32 | 16 | 96 | 4 | > 50 | 84 | Soluble | 42 |  |
| C=C(C)[C@@H]1CC[C@]2(CO)CC[C@]3(C)[C@H](CC[C@@H]4[C@@]5(C)CC[C@H](O)C(C)(C)[C@@H]5CC[C@]43C)[C@@H]12 [BETULIN] | 46 | > 50 | 2 | 99.5 | 0.5 | > 50 | 98 | Insoluble | 26 |  |
